Results as given in patent publication US9023986B2, “Glucose-dependent insulinotropic peptide analogs” (Hoffmann-La Roche Inc., priority 2010, dated 2015).
Non-standard residues stand in square brackets, D forms with d. Residues, ends and D or L forms follow the SMILES beside them.

Columns and labels:
[1] = stability in Hannover Wistar rat plasma; assay type: in vitro ADME; details: for stability in rat plasma (in words): acceptance range 75-125%
Method: (§1) The following study was conducted to assess the stability of the compound of Example 19 in Hannover Wistar rat and human plasma after 4 and 24 hours.
(§2) 2.08 mg of the compound of Example 19 was weighed out and placed in a 4 mL amber vial. To this was added 1.0 mL DMSO. The vial was carefully vortexed to produce a 573 μM stock solution of the compound.
(§3) Hannover Wistar rat plasma and human plasma (anti-coagulant sodium EDTA) were pre-warmed to 37° C. for 30 minutes in a water bath. Rat plasma pH was 7.45 and human plasma pH was 7.47. 1.5 mL microcentrifuge vials were used.
(§4) 8.70 μL of 573 μM stock solution of the compound of Example 19 was added to 491.34 μL of the rat plasma and placed into one vial. 8.74 μL of 573 μM stock solution of the compound of Example 19 was added to 491.34 μL of the human plasma and placed into another vial. The two vials were gently vortexed ensuring proper mixing.
(§5) Six new vials were labeled as follows: rat T0, rat T4, rat T24, human T0, human T4, human T24. To each of these vials, […] of treated plasma was added. The T4 and T24 vials were capped and placed in a 37° C. incubator for 4 and 24 hours, respectively.
(§6) To each of the two T0 vials, 50 µL of Sorensen buffer and 200 μL 1.0% acetic acid in acetonitrile were added. The T0 vials were then capped, vortexed and centrifuged at 10000×g for 10 minutes. Upon completion of centrifugation, 100 μL of the supernatant of each vial was added to a separate well in a 96-well injection block. 200 μL of 0.1% acetic acid in Milli-Q® water (Millipore) was then added to each well.
(§7) The above procedure as written with respect to the T0 vials was repeated for the two T4 vials at the 4 hour timepoint and the T24 vials at the 24 hour timepoint. With each timepoint a fresh T0 sample was prepared, as described above, to ensure there was no sample degradation.
(§8) All samples were analyzed by LC/MS/MS. The resulting chromatographs were processed to obtain peaks areas for each sample. The percent of compound remaining at each timepoint as compared with the amount present in the comparison T0 sample was calculated.

[2] = stability in human plasma; assay type: in vitro ADME
Method: as §1, §2, §3, §4, §5, §6, §7, §8

[3] = molecular target: T1, human GIPR (Homo sapiens, UniProt P48546); test: cAMP production in CHO-K1 cells expressing human GIPR (LANCE cAMP assay); assay type: cell-based; details: CHO-K1, read-out: % activation of cAMP (maximal stimulation)
T1 construct: host or cells: CHO-K1
T1 sequence (P48546 22-466): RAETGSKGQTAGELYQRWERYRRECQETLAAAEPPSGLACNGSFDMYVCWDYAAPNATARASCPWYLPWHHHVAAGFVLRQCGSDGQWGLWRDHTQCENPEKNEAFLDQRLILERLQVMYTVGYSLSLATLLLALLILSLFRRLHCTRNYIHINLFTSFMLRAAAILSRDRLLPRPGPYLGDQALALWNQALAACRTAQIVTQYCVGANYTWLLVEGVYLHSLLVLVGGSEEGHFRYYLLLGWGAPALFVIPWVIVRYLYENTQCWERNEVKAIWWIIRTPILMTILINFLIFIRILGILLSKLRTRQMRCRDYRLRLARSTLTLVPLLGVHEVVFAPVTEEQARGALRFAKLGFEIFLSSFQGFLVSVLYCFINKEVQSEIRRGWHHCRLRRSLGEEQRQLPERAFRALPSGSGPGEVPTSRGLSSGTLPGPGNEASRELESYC
Method: CHO—K1 cells expressing human GIPR were obtained from DiscoverX Corporation (Fremont, Calif.). The cells were cultured in Ham's F-12 nutrient media supplemented with 10% foetal bovine serum, 800 μg/ml geneticin, 300 μg/ml hydromycin, 2 mM L-glutamine, and Penicillin-streptomycin (100 units, 100 μg) at 37° C. in a 5% CO2 incubator. The cells were harvested at 90% confluence.
The cells were suspended in Ham's F-12 nutrient media to a concentration of 200,000 cells/ml. The cells were then plated in a 384 well plate at with […] of the suspension added per well. The cells were incubated overnight at 37° C. in a 5% CO2 incubator.
The activity of the compounds was determined by stimulating the CHO—K1 cells with the test compound, and measuring the levels of cAMP produced. The activity of the compounds was compared to the activity of native GIP, as GIP stimulates cAMP production. 6 μl of the test compound in stimulation buffer (990 ml Hank's Balanced Salt solution (HBSS) (1×) (Invitrogen Corp #14025-092), 10 ml Hepes buffer solution (1 mol·L) (Invitrogen Corp 15630-080), 1 g BSA (final 0.1%), and 1 ml IBMX 250 mM stock prepared fresh in DMSO (Sigma-Aldrich 15879)) were added to cells, followed by 6 μl of Alexa Fluor® 647-anti cAMP antibody (Perkin Elmer) in stimulation buffer. […] The well plate was centrifuged for 3 min at 300 rpm, and incubated at room temperature for 45 minutes. 12 μl of detection mixture (biotin cAMP and EUW8044 labeled streptavidin (Eu-SA) in cAMP Detection Buffer (Perkin Elmer)) was added and incubated for 60 min at room temperature.
The levels of cAMP produced were measured according to the detailed protocol outlined in the Perkin Elmer LANCE cAMP Assay Perkin Elmer Lance cAMP Kit manual. The activity of the compounds was compared to the activity of native GIP.
The plates are read on a TRF detection instrument, EnVision® (Perkin Elmer) (excitation at 340 nm and emission at 665 nm). The values of the cAMP signal are obtained from the standard cAMP curve and used to determine the amount of maximal stimulation, and EC50 for stimulating the cAMP signal.

SMILES: CC[C@H](C)[C@H](NC(=O)[C@H](C)NC(=O)[C@H](CC(=O)O)NC(=O)[C@H](CCSC)NC(=O)[C@H](C)NC(=O)[C@@H](NC(=O)[C@H](CO)NC(=O)[C@H](Cc1ccc(O)cc1)NC(=O)[C@H](CC(=O)O)NC(=O)[C@H](CO)NC(=O)[C@@H](NC(=O)[C@H](Cc1ccccc1)NC(=O)[C@@H](NC(=O)CNC(=O)[C@H](CCC(=O)O)NC(=O)[C@H](C)NC(=O)[C@@H](Cc1ccc(O)cc1)NC(C)=O)[C@@H](C)O)[C@@H](C)CC)[C@@H](C)CC)C(=O)N[C@@H](Cc1c[nH]cn1)C(=O)N[C@@H](CCC(N)=O)C(=O)N[C@@H](CCC(N)=O)C(=O)N[C@@H](CC(=O)O)C(=O)N[C@@H](Cc1ccccc1)C(=O)N[C@H](C(=O)N[C@@H](CC(N)=O)C(=O)N[C@@H](Cc1c[nH]c2ccccc12)C(=O)N[C@@H](CC(C)C)C(=O)N[C@@H](CC(C)C)C(=O)N[C@@H](C)C(=O)N[C@@H](CCC(N)=O)C(=O)N[C@@H](CCCCN)C(N)=O)C(C)C [Example 19] (Ac-[dY]AEGTFISDYSIAMDAIHQQDFVNWLLAQK-NH2)
- % Remaining 4 hr, Rat ([1]; 10 uM, 37° C., 4 hr, vs T0 sample, LC/MS/MS): 124.7%
- stability in rat plasma (in words) ([1]; 4 hours): stable
- stability in rat plasma (in words) ([1]; 24 hour timepoint): slightly below the acceptance range
- remaining at 24 h, 10 µM ([1]; Hannover Wistar, pH 7.45, 10 uM, 37° C., 24 hr, vs T0 sample, LC/MS/MS): 72.7%
- stability in human plasma (in words) ([2]; both the 4 hour and the 24 hour timepoints): stable
- remaining at 4 h, 10 µM ([2]; pH 7.47, 10 uM, 37° C., 4 hr, vs T0 sample, LC/MS/MS): 93.6%
- remaining at 24 h, 10 µM ([2]; pH 7.47, 10 uM, 37° C., 24 hr, vs T0 sample, LC/MS/MS): 75.9%
- Emax [3]: 100%
